Reference: ChEMBL document CHEMBL1140470, “Synthesis and in vitro evaluation of a selective antagonist and the corresponding radioligand for the prostaglandin D2 receptor CRTH2” (Bioorg Med Chem Lett, 2007)

Experiments:
[1] = target: T1, Prostaglandin D2 receptor 2 (Homo sapiens, UniProt Q9Y5Y4); assay: (§1) Displacement of [3H]TRQ11238 from human CRTH2 receptor expressed in HEK293 cells; type: cell-based
T1 sequence (Q9Y5Y4 whole entry): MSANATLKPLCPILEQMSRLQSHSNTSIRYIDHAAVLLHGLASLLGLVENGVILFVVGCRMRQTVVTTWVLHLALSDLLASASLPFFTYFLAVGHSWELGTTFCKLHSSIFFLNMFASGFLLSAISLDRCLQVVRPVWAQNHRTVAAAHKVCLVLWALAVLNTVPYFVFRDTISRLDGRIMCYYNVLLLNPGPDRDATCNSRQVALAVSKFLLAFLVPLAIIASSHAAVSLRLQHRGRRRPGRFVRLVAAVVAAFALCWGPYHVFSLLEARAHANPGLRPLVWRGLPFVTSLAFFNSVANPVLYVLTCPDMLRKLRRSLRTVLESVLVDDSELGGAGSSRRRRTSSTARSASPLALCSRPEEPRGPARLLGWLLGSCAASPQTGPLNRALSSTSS

[2] = target: T1, Prostaglandin D2 receptor 2; assay: Antagonist activity at human CRTH2 receptor assessed as inhibition of PGD2-induced signaling by inositol-phosphate assay; type: functional
CRTH2 (Homo sapiens) = assay: Selectivity for CRTH2 over DP and TP receptors
[3] = target: T2, Prostaglandin D2 receptor 2 (Homo sapiens) (UniProt Q9Y5Y4); assay: as §1; type: cell-based; details: tested as the 3H-labelled form
T2 sequence (whole entry): T1 sequence (Q9Y5Y4 whole entry)

[4] = target: T1, Prostaglandin D2 receptor 2; assay: Displacement of [3H]PGD2 from human CRTH2 receptor

Row | Kd [1] [nM] | IC50 [2] [nM] | Selectivity ratio (CRTH2 (Homo sapiens)) | Bmax [3] [fmol/mg] | Ki [4] [nM] | Structure (SMILES)
1 | 1 |  |  |  |  | [3H]c1cc([3H])cc(CN(CCc2cn(CC(=O)O)c3ccccc23)S(=O)(=O)c2ccc(F)cc2)c1
2 |  | 3.98 | > 1000 | 2790 | 0.631 | O=C(O)Cn1cc(CCN(Cc2ccccc2)S(=O)(=O)c2ccc(F)cc2)c2ccccc21
